Measurements from PubChem BioAssay AID330 (DTP/NCI, 2004).
Where “and” joins values, the source holds several entries; their conditions need not be identical. Identical values can stand only once. Toxic doses and inconclusive results are not listed.

Test system: P388 leukemia ip, CD2F1 mice, survival T/C
Test: NCI In Vivo Anticancer Drug Screen. Data for tumor model P388 Leukemia (intraperitoneal) in CD2F1 (CDF1) mice
Settings: endpoint: median survival time, higher = longer survival
Procedure, shortened: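 Mice carrying the transplanted tumor received test compound or vehicle. Survival was recorded in each group, and the value is the treated-group measurement divided by that of the vehicle-treated control group.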

[1] = dose: 50.0 mg/kg/injection, schedule: Q01DX005 (ip), vehicle: saline with Tween-80
[2] = dose: 100.0 mg/kg/injection, schedule: Q01DX005 (ip), vehicle: saline with Tween-80
[3] = dose: 12.5 mg/kg/injection, schedule: Q01DX009 (ip), vehicle: saline with Tween-80
[4] = dose: 25.0 mg/kg/injection, schedule: Q01DX009 (ip), vehicle: saline with Tween-80
[5] = dose: 50.0 mg/kg/injection, schedule: Q01DX009 (ip), vehicle: saline with Tween-80
[6] = dose: 100.0 mg/kg/injection, schedule: Q01DX009 (ip), vehicle: saline with Tween-80
[7] = dose: 25.0 mg/kg/injection, schedule: Q04DX003 (ip), vehicle: saline with Tween-80
[8] = dose: 50.0 mg/kg/injection, schedule: Q04DX003 (ip), vehicle: saline with Tween-80
[9] = dose: 100.0 mg/kg/injection, schedule: Q04DX003 (ip), vehicle: saline with Tween-80

CCOc1nc(N)nc(C)c1N=Nc1ccc(Cl)cc1Cl
T/C (dose: 60.0 mg/kg/injection, schedule: Q01DX005 (ip), vehicle: Klucel + Tween-80): 100 % of control | T/C (dose: 120.0 mg/kg/injection, schedule: Q01DX005 (ip), vehicle: Klucel + Tween-80): 110 % of control

Cc1cc(=O)c2ccc3c(c2[nH]1)Oc1ccc2c(=O)cc(C)[nH]c2c1O3
T/C [1]: 98 % of control | T/C [2]: 101 % of control | T/C (dose: 200.0 mg/kg/injection, schedule: Q01DX005 (ip), vehicle: saline with Tween-80): 98 % of control

N#CCCn1ncc(=O)[nH]c1=O
T/C (dose: 50.0 mg/kg/injection, schedule: Q01DX005 (ip), vehicle: water): 101 % of control | T/C (dose: 100.0 mg/kg/injection, schedule: Q01DX005 (ip), vehicle: water): 104 % of control | T/C (dose: 200.0 mg/kg/injection, schedule: Q01DX005 (ip), vehicle: water): 107 % of control

CCC1(O)CC(c2ccccc2)N(C)C(c2ccccc2)C1 (configuration not stated)
T/C [1]: 99 % of control | T/C [2]: 95 % of control

O=[N+]([O-])c1ccc(N/N=C\c2cccc3c(/C=N/Nc4ccc([N+](=O)[O-])cc4[N+](=O)[O-])c(Cl)n(-c4ccccc4)c23)c([N+](=O)[O-])c1
T/C (dose: 25.0 mg/kg/injection, schedule: Q01DX001 (ip), vehicle: Klucel (hydroxypropylcellulose) (HPC)): 102 % of control | T/C (dose: 50.0 mg/kg/injection, schedule: Q01DX001 (ip), vehicle: Klucel (hydroxypropylcellulose) (HPC)): 95 % of control | T/C (dose: 100.0 mg/kg/injection, schedule: Q01DX001 (ip), vehicle: Klucel (hydroxypropylcellulose) (HPC)): 93 % of control

CCCCCCCCCCC[N+](C)([O-])CCCCCC[N+](C)([O-])CCCCCCCCCCC (configuration not stated)
T/C [3]: 100 % of control | T/C [4]: 100 % of control | T/C [5]: 102 % of control and 96 % of control

O=C(O)c1ccc(=O)oc1
T/C [3]: 98 % of control | T/C [4]: 94 % of control | T/C [5]: 116 % of control | T/C [6]: 116 % of control

O=c1cc(-c2ccccc2)[nH]c(=O)[nH]1
T/C [7]: 99 % of control | T/C [8]: 101 % of control | T/C [9]: 107 % of control

COc1cc([N+](=O)[O-])ccc1N=Cc1cccs1
T/C (dose: 50.0 mg/kg/injection, schedule: Q01DX009 (ip), vehicle: saline): 97 % of control | T/C (dose: 100.0 mg/kg/injection, schedule: Q01DX009 (ip), vehicle: saline): 93 % of control | T/C (dose: 200.0 mg/kg/injection, schedule: Q01DX009 (ip), vehicle: saline): 101 % of control

O=[N+]([O-])c1cccc(/C=N/NS(=O)(=O)c2ccc(F)cc2)c1O
T/C (dose: 60.0 mg/kg/injection, schedule: Q01DX005 (ip), vehicle: saline with Tween-80): 95 % of control | T/C (dose: 120.0 mg/kg/injection, schedule: Q01DX005 (ip), vehicle: saline with Tween-80): 93 % of control | T/C (dose: 240.0 mg/kg/injection, schedule: Q01DX005 (ip), vehicle: saline with Tween-80): 106 % of control

C[CH2][Sn]([CH2]C)([O]C(C)=O)[O][Sn]([CH2]C)([CH2]C)[O]C(C)=O
T/C (dose: 6.25 mg/kg/injection, schedule: Q01DX009 (ip), vehicle: saline): 155 % of control

CCCNC(=O)CCC(NS(=O)(=O)c1ccc(C)cc1)C(=O)O (configuration not stated)
T/C (dose: 50.0 mg/kg/injection, schedule: Q01DX005 (ip), vehicle: Klucel (hydroxypropylcellulose) (HPC)): 100 % of control | T/C (dose: 100.0 mg/kg/injection, schedule: Q01DX005 (ip), vehicle: Klucel (hydroxypropylcellulose) (HPC)): 100 % of control | T/C (dose: 200.0 mg/kg/injection, schedule: Q01DX005 (ip), vehicle: Klucel (hydroxypropylcellulose) (HPC)): 98 % of control

CN=C(N)N/N=C(\C)c1ccc2c(c1)-c1ccc(/C(C)=N/NC(N)=NC)c3cccc-2c13
T/C (dose: 3.12 mg/kg/injection, schedule: Q04DX002 (ip), vehicle: saline with Tween-80): 104 % of control | T/C (dose: 6.25 mg/kg/injection, schedule: Q04DX002 (ip), vehicle: saline with Tween-80): 99 % of control | T/C (dose: 12.5 mg/kg/injection, schedule: Q04DX002 (ip), vehicle: saline with Tween-80): 100 % of control

ClCc1ccc(Cl)c(Cl)c1Cl
T/C [4]: 100 % of control | T/C [7]: 100 % of control | T/C [5]: 104 % of control | T/C [8]: 100 % of control | T/C [6]: 109 % of control | T/C [9]: 100 % of control
